Results reported in US4705784A, “Cephem compounds” (Sumitomo Pharmaceuticals Company, Limited, priority 1983, dated 1987).
≈ marks a conversion by molar mass, not a printed value.

Experiments:
[1] = test system: Proteus mirabilis; experiment: Antimicrobial activity test, Proteus mirabilis; assay type: cell-based
[2] = test system: Escherichia coli; experiment: Antimicrobial activity test, Escherichia coli; assay type: cell-based
[3] = test system: Enterobacter aerogenes; experiment: Antimicrobial activity test, Enterobacter aerogenes; assay type: cell-based; details: Klebsiella aerogenes
[4] = test system: Staphylococcus epidermidis; experiment: Antimicrobial activity test, Staphylococcus epidermidis; assay type: cell-based
[5] = test system: Serratia marcescens; experiment: Antimicrobial activity test, Serratia marcescens; assay type: cell-based
[6] = Oral dosage absorbability: urinary excretion rate after oral administration, rat; assay type: in vivo; details: urine, dose: 50 mg/kg
Protocol: (§1) Results of oral dosage absorbability tests
(§2) Urinary excretion rate after oral
(§3) Test compd. administration (dose: 50 mg/kg)

[7] = Oral dosage absorbability: urinary excretion rate after oral administration, mouse; assay type: in vivo; details: urine, dose: 50 mg/kg
Protocol: as §1, §2, §3

[8] = test system: bacteria; details: cephem antibiotics in use for oral administration; cited from earlier work
[9] = test system: β-lactamase producing resistant bacteria; details: cephem antibiotics in use for oral administration; cited from earlier work

MIC [1] [µg/mL]	MIC [2] [µg/mL]	MIC [3] [µg/mL]	MIC [4] [µg/mL]	MIC [5] [µg/mL]	dose excreted [6] [%]	dose excreted [7] [%]	Structure (SMILES)	antimicrobial activity and width of antimicrobial spectrum [8]	effect on β-lactamase producing resistant bacteria [9]
0.05 (≈ 0.11 µM)	0.2 (≈ 0.439 µM)	0.78 (≈ 1.71 µM)	3.13 (≈ 6.87 µM)	3.13 (≈ 6.87 µM)			CCO/N=C(\C(=O)NC1C(=O)N2C(C(=O)O)=C(COC(N)=O)CSC12)c1cscn1 (centres unmarked) [Example 10]		
					30	64	CO/N=C(\C(=O)NC1C(=O)N2C(C(=O)OCOC(=O)C(C)(C)C)=C(COC(N)=O)CS[C@H]12)c1cscn1 (some centres unmarked) [Example 5, Pivaloyloxymethyl 7-[(Z)-2-methoxyimino-2-(thiazol-4-yl)acetamido]-3-carbamoyloxymethyl-3-cephem-4-carboxylate]		
0.78 (≈ 1.82 µM)	0.39 (≈ 0.912 µM)	1.56 (≈ 3.65 µM)	1.56 (≈ 3.65 µM)	3.13 (≈ 7.32 µM)			NC(=O)OCC1=C(C(=O)O)N2C(=O)C(NC(=O)/C(=N\O)c3cscn3)[C@H]2SC1 (some centres unmarked) [Example 16, 7-[(Z)-2-hydroxyimino-2-(thiazol-4-yl)acetamido]-3-carbamoyloxymethyl-3-cephem-4-carboxylic acid]		

Continued, compound first:

Structure (SMILES)	MIC [1] [µg/mL]	MIC [2] [µg/mL]	MIC [3] [µg/mL]	MIC [4] [µg/mL]	MIC [5] [µg/mL]	dose excreted [6] [%]	dose excreted [7] [%]	antimicrobial activity and width of antimicrobial spectrum [8]	effect on β-lactamase producing resistant bacteria [9]
CO/N=C(\C(=O)NC1C(=O)N2C(C(=O)O)=C(COC(N)=O)CS[C@H]12)c1cscn1 (some centres unmarked) [Example 1, 7-[(Z)-2-Methoxyimino-2-(thiazol-4-yl)acetamido]-3-carbamoyloxymethyl-3-cephem-4-carboxylic acid]	≤ 0.013	0.05 (≈ 0.113 µM)	0.39 (≈ 0.883 µM)	1.56 (≈ 3.53 µM)	1.56 (≈ 3.53 µM)				
N[C@@H](C(=O)N[C@@H]1C(=O)N2C(C(=O)O)=C(Cl)CS[C@H]12)c1ccccc1 [cefaclor]								slightly inferior	ineffective
N[C@@H](C(=O)N[C@@H]1C(=O)N2C(C(=O)O)=C(CSc3c[nH]nn3)CS[C@H]12)c1ccc(O)cc1 [cefatrizine]								slightly inferior	ineffective
CC1=C(C(=O)O)N2C(=O)[C@@H](NC(=O)[C@H](N)c3ccccc3)[C@H]2SC1 [cephalexin]								slightly inferior	ineffective
